Numbers after ± are expanded uncertainties.
What was measured:
[1] = for surface tension liquid-gas: Ring tensiometer; for mass density / speed of sound / viscosity: 100 kPa, Liquid
[2] = xn = mol fraction of the nth substance listed; conditions: x2 = 0; for surface tension liquid-gas: Ring tensiometer; for mass density / speed of sound / viscosity: 100 kPa, Liquid

SMILES | surface tension liquid-gas ([2]; 293.15 K) [mN/m] | mass density ([2]; 293.15 K) [kg/m3] | speed of sound ([2]; 293.15 K) [m/s] | viscosity ([2]; 293.15 K) [mPa·s] | surface tension liquid-gas ([2]; 303.15 K) [mN/m] | surface tension liquid-gas ([1]; 293.15 K) [mN/m] | mass density ([1]; 293.15 K) [kg/m3] | speed of sound ([1]; 293.15 K) [m/s] | viscosity ([1]; 293.15 K) [mPa·s] | surface tension liquid-gas ([1]; 303.15 K) [mN/m] | mass density ([1]; 303.15 K) [kg/m3] | speed of sound ([1]; 303.15 K) [m/s] | viscosity ([1]; 303.15 K) [mPa·s] | surface tension liquid-gas ([1]; 313.15 K) [mN/m] | mass density ([1]; 313.15 K) [kg/m3] | speed of sound ([1]; 313.15 K) [m/s] | viscosity ([1]; 313.15 K) [mPa·s] | mass density ([1]; 323.15 K) [kg/m3] | speed of sound ([1]; 323.15 K) [m/s] | viscosity ([1]; 323.15 K) [mPa·s] | other results
CCN1CCCC1=O [1-ethyl-2-pyrrolidinone] | – | – | – | – | – | 36.5 ± 0.8 | 997.91 ± 1.6 | 1513.2 ± 4.1 | 2.132 ± 0.032 | 35.2 ± 0.8 | 989.34 ± 1.6 | 1475 ± 4.1 | 1.777 ± 0.027 | 34.2 ± 0.8 | 980.76 ± 1.7 | 1437.6 ± 4.1 | 1.515 ± 0.023 | 972.16 ± 1.8 | 1400.6 ± 4 | 1.31 ± 0.02 | –
NCCO [2-aminoethan-1-ol] | – | – | – | – | – | 49.7 ± 0.9 | 1015.93 ± 1.1 | 1734.4 ± 4 | 24.23 ± 0.24 | 47.8 ± 0.9 | 1008.02 ± 1 | 1702.1 ± 4 | 14.99 ± 0.15 | 47.1 ± 0.9 | 1000.06 ± 0.95 | 1670.1 ± 3.9 | 9.776 ± 0.1 | 992.05 ± 1 | 1637.2 ± 3.9 | 6.765 ± 0.076 | –
NCCO [2-aminoethan-1-ol] + CCN1CCCC1=O | 49.7 ± 0.9 | 1015.93 ± 1.1 | 1734.4 ± 4 | 24.23 ± 0.24 | 47.8 ± 0.9 | – | – | – | – | – | – | – | – | – | – | – | – | – | – | – | mass density ([2]; 303.15 K): 1008.02 ± 1 kg/m3; speed of sound ([2]; 303.15 K): 1702.1 ± 4 m/s; viscosity ([2]; 303.15 K): 14.99 ± 0.15 mPa·s; surface tension liquid-gas ([2]; 313.15 K): 47.1 ± 0.9 mN/m; mass density ([2]; 313.15 K): 1000.06 ± 0.95 kg/m3; speed of sound ([2]; 313.15 K): 1670.1 ± 3.9 m/s; viscosity ([2]; 313.15 K): 9.776 ± 0.1 mPa·s; mass density ([2]; 323.15 K): 992.05 ± 1 kg/m3; speed of sound ([2]; 323.15 K): 1637.2 ± 3.9 m/s; viscosity ([2]; 323.15 K): 6.765 ± 0.076 mPa·s
OCCNCCO [diethanolamine] | – | – | – | – | – | 47.4 ± 0.9 | 1096.45 ± 1.9 | 1739.2 ± 4 | 892.04 ± 87 | 46.6 ± 0.9 | 1090.02 ± 1.8 | 1711.3 ± 4 | 394.2 ± 28 | 46 ± 0.9 | 1083.51 ± 1.8 | 1685.9 ± 3.9 | 191.32 ± 8.8 | 1077.05 ± 1.7 | 1661.1 ± 3.9 | 102.72 ± 2.6 | –
OCCNCCO [diethanolamine] + CCN1CCCC1=O | 47.4 ± 0.9 | 1096.45 ± 1.9 | 1739.2 ± 4 | 892.04 ± 87 | 46.6 ± 0.9 | – | – | – | – | – | – | – | – | – | – | – | – | – | – | – | mass density ([2]; 303.15 K): 1090.02 ± 1.8 kg/m3; speed of sound ([2]; 303.15 K): 1711.3 ± 4 m/s; viscosity ([2]; 303.15 K): 394.2 ± 28 mPa·s; surface tension liquid-gas ([2]; 313.15 K): 46 ± 0.9 mN/m; mass density ([2]; 313.15 K): 1083.51 ± 1.8 kg/m3; speed of sound ([2]; 313.15 K): 1685.9 ± 3.9 m/s; viscosity ([2]; 313.15 K): 191.32 ± 8.8 mPa·s; mass density ([2]; 323.15 K): 1077.05 ± 1.7 kg/m3; speed of sound ([2]; 323.15 K): 1661.1 ± 3.9 m/s; viscosity ([2]; 323.15 K): 102.72 ± 2.6 mPa·s
OCCN(CCO)CCO [triethanolamine] | – | – | – | – | – | 46.3 ± 0.9 | 1123.51 ± 2.1 | 1626.9 ± 3.9 | 951.79 ± 95 | 45.6 ± 0.8 | 1118 ± 2.1 | 1605.3 ± 3.8 | 413.68 ± 30 | 44.8 ± 0.8 | 1112.34 ± 2 | 1587.8 ± 3.8 | 204.57 ± 9.8 | 1106.7 ± 2 | 1571.9 ± 3.8 | 111.34 ± 3.1 | –
OCCN(CCO)CCO [triethanolamine] + CCN1CCCC1=O | 46.3 ± 0.9 | 1123.51 ± 2.1 | 1626.9 ± 3.9 | 951.79 ± 95 | 45.6 ± 0.8 | – | – | – | – | – | – | – | – | – | – | – | – | – | – | – | mass density ([2]; 303.15 K): 1118 ± 2.1 kg/m3; speed of sound ([2]; 303.15 K): 1605.3 ± 3.8 m/s; viscosity ([2]; 303.15 K): 413.68 ± 30 mPa·s; surface tension liquid-gas ([2]; 313.15 K): 44.8 ± 0.8 mN/m; mass density ([2]; 313.15 K): 1112.34 ± 2 kg/m3; speed of sound ([2]; 313.15 K): 1587.8 ± 3.8 m/s; viscosity ([2]; 313.15 K): 204.57 ± 9.8 mPa·s; mass density ([2]; 323.15 K): 1106.7 ± 2 kg/m3; speed of sound ([2]; 323.15 K): 1571.9 ± 3.8 m/s; viscosity ([2]; 323.15 K): 111.34 ± 3.1 mPa·s

Source: the NIST ThermoML archive (doi:10.1021/je301123j)
